Measurements reported in patent publication US10689377B2 (Mirati Therapeutics, Inc., priority 2017, dated 2020).

How the values were obtained:
KRas G12C [1] = biological target: KRas G12C (Homo sapiens, UniProt P01116, C118S/C51S/C80L/G12C); experiment: KRas G12C Modification Assay (LCMS detection of covalent adduct); assay type: binding; conditions: normalized percent of control; 5 μM concentration for 3 hours
How it was run: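 Intact protein analysed by LC/MS with deconvolution; unmodified protein signal normalized to no-compound control and reported as percent of control (POC).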

KRas G12C [2] = biological target: KRas G12C (Homo sapiens, UniProt P01116, G12C); experiment: Cellular inhibition of KRas G12C measured by Phospho-ERK in NCI-H358 cells; assay type: cell-based; conditions: pERK(Thr202/Tyr204) normalized with GAPDH, NCI-H358 cells, 3 hours; read-out: IC50
How it was run: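 NCI-H358 cells treated 3 h with compound (0.5% DMSO final), then fixed and methanol-permeabilised. In-cell immunofluorescence measured pERK(Thr202/Tyr204) normalised to GAPDH as percent of DMSO control. IC50 from a 4-parameter dose-response fit.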

Row | SMILES | POC (KRas G12C [1]) | IC50 (KRas G12C [2]) [µM]
1 | CC(=O)N(C)C/C=C/C(=O)N1CCN(c2nc(OC[C@@H]3CCCN3C)nc3c2CCN(c2cccc4cccc(C)c24)C3)C[C@@H]1CC#N [Example 587] | A (“A”≤25% POC) | > 1
2 | C=C(F)C(=O)N1CCN(c2nc(OC[C@@H]3CCCN3C)nc3c2CCN(c2cccc4cccc(C(C)C)c24)C3)C[C@@H]1CC#N [Example 591] | B (“B”>25% POC-≤50% POC) | > 1
3 | C=C(F)C(=O)N1CCN(c2nc(OC[C@@H]3CCCN3C)nc3c2CCN(c2cncc(Cl)c2C(F)(F)F)C3)C[C@@H]1CC#N [Example 600, 2-((S)-4-(7-(5-Chloro-4-(trifluoromethyl)pyridin-3-yl)-2-(((S)-1-methylpyrrolidin-2-yl)methoxy)-5,6,7,8-tetrahydropyrido[3,4-d]pyrimidin-4-yl)-1-(2-fluoroacryloyl)piperazin-2-yl)acetonitrile] | C (“C”>50% POC) | 0.0001 to 1
4 | Cc1cccc(N2CCc3c(nc(OC[C@@H]4CCCN4C)nc3N3CCN(C(=O)C4=CCC4)[C@@H](CC#N)C3)C2)c1C [Example 392, 2-((S)-1-(cyclobut-1-ene-1-carbonyl)-4-(7-(2,3-dimethylphenyl)-2-(((S)-1-methylpyrrolidin-2-yl)methoxy)-5,6,7,8-tetrahydropyrido[3,4-d]pyrimidin-4-yl)piperazin-2-yl)acetonitrile] | C (“C”>50% POC) | > 1
5 | C=CC(=O)N1CCN(c2nc(OC[C@@H]3CCCN3C)nc3c2CCN(c2ccccc2C(C)C)C3)CC1 [Example 158, 1-[4-[7-(2-isopropylphenyl)-2-[[(2S)-1-methylpyrrolidin-2-yl]methoxy]-6,8-dihydro-5H-pyrido[3,4-d]pyrimidin-4-yl]piperazin-1-yl]prop-2-en-1-one] | C (“C”>50% POC) | > 1
6 | C=C(F)C(=O)N1CCN(c2nc(OC[C@@H]3CCCN3C)nc3c2CCN(c2cccc4cccc(Br)c24)C3)C[C@@H]1CC#N [Example 588, 2-((S)-4-(7-(8-Bromonaphthalen-1-yl)-2-(((S)-1-methylpyrrolidin-2-yl)methoxy)-5,6,7,8-tetrahydropyrido[3,4-d]pyrimidin-4-yl)-1-(2-fluoroacryloyl)piperazin-2-yl)acetonitrile] | C (“C”>50% POC) | 0.0001 to 1
7 | C=CC(=O)N1CCN(c2nc(OC[C@@H]3CCCN3C)nc3c2CCN(c2cccc4c2OCC4)C3)C[C@@H]1CC#N [Example 435, 2-((S)-1-acryloyl-4-(7-(2,3-dihydrobenzofuran-7-yl)-2-(((S)-1-methylpyrrolidin-2-yl)methoxy)-5,6,7,8-tetrahydropyrido[3,4-d]pyrimidin-4-yl)piperazin-2-yl)acetonitrile] | C (“C”>50% POC) | 0.0001 to 1
8 | C=C(F)C(=O)N1CCN(c2nc(OC[C@H]3C[C@@H](OC)CN3C)nc3c2CCN(c2cccc4cccc(Cl)c24)C3)C[C@@H]1CC#N [Example 576, 2-[(2S)-4-[7-(8-Chloro-1-naphthyl)-2-[[(2R,4R)-4-methoxy-1-methyl-pyrrolidin-2-yl]methoxy]-6,8-dihydro-5H-pyrido[3,4-d]pyrimidin-4-yl]-1-(2-fluoroprop-2-enoyl)piperazin-2-yl]acetonitrile] | C (“C”>50% POC) | 0.0001 to 1
9 | C=CC(=O)N1CCN(c2nc(OC[C@@H]3CCCN3C)nc3c2CCN(c2cc(O)cc4ccccc24)C3)CC1CC#N (stereo partly drawn) [Example 182, 2-[4-[7-(3-hydroxy-1-naphthyl)-2-[[(2S)-1-methylpyrrolidin-2-yl]methoxy]-6,8-dihydro-5H-pyrido[3,4-d]pyrimidin-4-yl]-1-prop-2-enoyl-piperazin-2-yl]acetonitrile] | C (“C”>50% POC) | 0.0001 to 1
10 | C=CC(=O)N1CCN(c2nc(OCCCN3CC4CC4C3)nc3c2CCN(c2cc(O)cc4ccccc24)C3)CC1 (stereo not shown) [Example 206, 1-(4-(2-(3-(3-azabicyclo[3.1.0]hexan-3-yl)propoxy)-7-(3-hydroxynaphthalen-1-yl)-5,6,7,8-tetrahydropyrido[3,4-d]pyrimidin-4-yl)piperazin-1-yl)prop-2-en-1-one] | C (“C”>50% POC) | 0.0001 to 1

Other lines, results leading:

Row | POC (KRas G12C [1]) | IC50 (KRas G12C [2]) [µM] | SMILES
11 | C (“C”>50% POC) | 0.0001 to 1 | C=C(F)C(=O)N1CCN(c2nc(OCCN(C)C)nc3c2CCN(c2cccc4cccc(C)c24)C3)C[C@@H]1CC#N [Example 559, 2-[(2S)-4-[2-[2-(Dimethylamino)ethoxy]-7-(8-methyl-1-naphthyl)-6,8-dihydro-5H-pyrido[3,4-d]pyrimidin-4-yl]-1-(2-fluoroprop-2-enoyl)piperazin-2-yl]acetonitrile]
12 | C (“C”>50% POC) | 0.0001 to 1 | C=C(F)C(=O)N1CCN(c2nc(OCCCN3C[C@@H]4C[C@H]3CO4)nc3c2CCN(c2cccc4cccc(C)c24)C3)C[C@@H]1CC#N [Example 566, 2-[(2S)-1-(2-Fluoroprop-2-enoyl)-4-[7-(8-methyl-1-naphthyl)-2-[3-[(1S,4S)-2-oxa-5-azabicyclo[2.2.1]heptan-5-yl]propoxy]-6,8-dihydro-5H-pyrido[3,4-d]pyrimidin-4-yl]piperazin-2-yl]acetonitrile]
13 | C (“C”>50% POC) | 0.0001 to 1 | COC/C=C/C(=O)N1CCN(c2nc(OC[C@H]3CCCN3C)nc3c2CCN(c2cccc4cccc(C)c24)C3)C[C@@H]1CC#N [Example 554, 2-[(2S)-1-[(E)-4-Methoxybut-2-enoyl]-4-[7-(8-methyl-1-naphthyl)-2-[[(2R)-1-methylpyrrolidin-2-yl]methoxy]-6,8-dihydro-5H-pyrido[3,4-d]pyrimidin-4-yl]piperazin-2-yl] acetonitrile]
14 | C (“C”>50% POC) | 0.0001 to 1 | C=C(F)C(=O)N1CCN(c2nc(OC[C@@H]3CCCN3)nc3c2CCN(c2cccc4cccc(C)c24)C3)C[C@@H]1CC#N [Example 568, 2-[(2S)-1-(2-Fluoroprop-2-enoyl)-4-[7-(8-methyl-1-naphthyl)-2-[[(2S)-pyrrolidin-2-yl]methoxy]-6,8-dihydro-5H-pyrido[3,4-d]pyrimidin-4-yl]piperazin-2-yl]acetonitrile]
